This is an account of results in ChEMBL document CHEMBL3785086, “Design and synthesis of natural product derivatives with selective and improved cytotoxicity based on a sesquiterpene scaffold” (Bioorg Med Chem Lett, 2016).

Structures are written as SMILES. pIC50: −log10 of the molar value.

One experiment relates to HeLa. The experiment is described as follows: Cytotoxicity against human HeLa cells assessed as cell proliferation after 24 hrs by CCK-8 assay. The class given is functional, cell-based.
Experiment [1] can be described thus: Cytotoxicity against human BGC823 cells assessed as cell proliferation after 24 hrs by CCK-8 assay. It is filed as functional, cell-based. The settings on record: BGC-823, 24 h.
Experiment [2] in a line: Cytotoxicity against mouse NIH/3T3 cells assessed as cell proliferation after 24 hrs by CCK-8 assay. The class given is cell-based. The following applies: NIH3T3, 24 h.
Experiment [3] in a line: Cytotoxicity against human HO8910 cells assessed as cell proliferation after 24 hrs by CCK-8 assay. The class given is functional, cell-based. The settings on record: HO-8910, 24 h.
In the next experiment the test system is MCF7. The experiment is described as follows: Cytotoxicity against human MCF7 cells assessed as cell proliferation after 24 hrs by CCK-8 assay. The class given is functional, cell-based. The following applies: MCF7, 24 h.
For a further experiment, the system named is A549. The experiment is described as follows: Cytotoxicity against human A549 cells assessed as cell proliferation after 24 hrs by CCK-8 assay. The class given is functional, cell-based. The following applies: A549, 24 h.
Experiment [4] can be described thus: Cytotoxicity against human T24 cells assessed as cell proliferation after 24 hrs by CCK-8 assay. The settings on record: T-24, 24 h. It is filed as functional, cell-based.

In the case of `C=C1CCC(c2coc(/C=C(\C)C(N)=O)c2)CC1`, the pIC50 with HeLa was 5.30; in experiment [1], below 4.30; in experiment [2], below 4.30; in experiment [3], 4.74; with MCF7, 5.07; in the experiment on A549 it was below 4.30. Moreover, the pIC50 in experiment [4] is below 4.30.

Consider `C/C(=C\c1cc(-c2ccc3c(c2)OCO3)cs1)C(N)=O`, for which the negative logarithm of the IC50 (pIC50) with HeLa was below 4.30; in experiment [1], below 4.30; in experiment [2], below 4.30; in experiment [3], below 4.30; in the experiment on MCF7 it was 5.52; in the experiment with A549 it was below 4.30. Moreover, in experiment [4], the pIC50 is below 4.30.

`C/C(=C\c1ccc(-c2ccc(F)cc2)o1)C(N)=O`: the pIC50 in the experiment on HeLa was 5.69; in experiment [1] it was 6.03; in experiment [2], 6.02; in experiment [3] it was 6.00; with MCF7, 6.01; in the experiment on A549 it was 5.78. Besides, the pIC50 in experiment [4] was 5.48.

As to `C/C(=C\c1ccc(-c2ccc(C)cc2)o1)C(N)=O`, the pIC50 in the experiment with HeLa is 5.34; in experiment [1], below 4.30; in experiment [2], below 4.30; in experiment [3] it was 5.78; with MCF7, below 4.30; in the experiment on A549, below 4.30. For the same molecule, the pIC50 in experiment [4] is below 4.30.

With `C/C(=C\c1cc(C2=CCCCC2)co1)C(N)=O`, the pIC50 is below 4.30 with HeLa; below 4.30 in experiment [1]; below 4.30 in experiment [2]; below 4.30 in experiment [3]; 5.18 in the experiment with MCF7; below 4.30 in the experiment with A549. The pIC50 in experiment [4] was below 4.30.

Regarding `C/C(=C\c1cc(-c2ccc(Cl)cc2)cs1)C(N)=O`, the pIC50 with HeLa is below 4.30; in experiment [1], below 4.30; in experiment [2], below 4.30; in experiment [3], below 4.30; in the experiment with MCF7, 4.77; in the experiment with A549, below 4.30. In experiment [4], the pIC50 was below 4.30.

As to `C/C(=C\c1nc(-c2ccc(F)cc2)cs1)C(N)=O`, the pIC50 in the experiment with HeLa is 5.27; in experiment [1], below 4.30; in experiment [2], below 4.30; in experiment [3], 5.35; with MCF7 it was 5.48; in the experiment with A549, 4.88. In addition, in experiment [4], the pIC50 was below 4.30.

Regarding `C/C(=C\c1cc(-c2ccc(S(C)(=O)=O)cc2)cs1)C(N)=O`, the negative-log IC50 (pIC50) (in the experiment on HeLa; in experiment [1]; in experiment [2]; in experiment [3]; in the experiment on MCF7; in the experiment on A549) was below 4.30 throughout. In addition, the pIC50 in experiment [4] was below 4.30.

With `C/C(=C\c1cc(-c2ccccc2)co1)C(N)=O`, the pIC50 is 5.48 in the experiment with HeLa; below 4.30 in experiment [1]; below 4.30 in experiment [2]; 4.37 in experiment [3]; 5.48 with MCF7; below 4.30 with A549. Also, in experiment [4], the pIC50 is below 4.30.

As to `C/C(=C\c1cc(-c2ccc(C)cc2)cs1)C(N)=O`, the pIC50 (in the experiment on HeLa; in experiment [1]; in experiment [2]; in experiment [3]; in the experiment with MCF7; in the experiment with A549) was below 4.30 each time. Also, in experiment [4], the pIC50 is below 4.30.

Take `C/C(=C\c1cc(C2=CCCC2)co1)C(N)=O`: the negative logarithm of the IC50 (pIC50) in the experiment on HeLa was 4.75; in experiment [1], below 4.30; in experiment [2], 4.31; in experiment [3], below 4.30; in the experiment with MCF7, 4.82; in the experiment with A549, 4.78. In experiment [4], the pIC50 is below 4.30.

For `C/C(=C\c1cc(-c2ccccc2C)cs1)C(N)=O`, the pIC50 with HeLa was 4.71; in experiment [1], below 4.30; in experiment [2], below 4.30; in experiment [3], 4.82; with MCF7, 5.31; in the experiment on A549, below 4.30. In experiment [4], the pIC50 is below 4.30.

Consider `C/C(=C\c1cc(-c2ccc(F)cc2)co1)C(N)=O`, for which the pIC50 in the experiment with HeLa was 4.93; in experiment [1], below 4.30; in experiment [2] it was below 4.30; in experiment [3], below 4.30; in the experiment on MCF7, 5.66; in the experiment on A549 it was 4.83. In addition, the pIC50 in experiment [4] is below 4.30.

Take `C/C(=C\c1cc(-c2ccccc2)cs1)C(N)=O`: the pIC50 in the experiment with HeLa was 4.90; in experiment [1] it was below 4.30; in experiment [2], below 4.30; in experiment [3] it was below 4.30; in the experiment with MCF7 it was 5.57; with A549, below 4.30. In experiment [4], the pIC50 is below 4.30.

As to `C/C(=C\c1cc(-c2ccc(C)cc2)co1)C(N)=O`, the pIC50 with HeLa is 4.92; in experiment [1], below 4.30; in experiment [2] it was below 4.30; in experiment [3], 4.62; in the experiment on MCF7, 5.79; in the experiment on A549, below 4.30. Further, in experiment [4], the negative logarithm of the IC50 (pIC50) is below 4.30.

`C/C(=C\c1cc(-c2ccc([N+](=O)[O-])cc2)cs1)C(N)=O`: the negative-log IC50 (pIC50) with HeLa was 5.54; in experiment [1], below 4.30; in experiment [2], below 4.30; in experiment [3], 5.62; with MCF7, 5.92; with A549, 5.46. Further, the pIC50 in experiment [4] is below 4.30.

With `C/C(=C\c1nc(-c2ccccc2)cs1)C(N)=O`, the pIC50 is 5.56 in the experiment on HeLa; below 4.30 in experiment [1]; below 4.30 in experiment [2]; 5.42 in experiment [3]; 5.62 in the experiment on MCF7; below 4.30 with A549. In addition, the pIC50 in experiment [4] is below 4.30.

For `C/C(=C\c1cc(-c2ccc(F)nc2)co1)C(N)=O`, the pIC50 in the experiment on HeLa was below 4.30; in experiment [1] it was below 4.30; in experiment [2] it was below 4.30; in experiment [3] it was 4.52; with MCF7 it was 4.85; in the experiment on A549, below 4.30. In experiment [4], the pIC50 was below 4.30.

Turning to `C/C(=C\c1cccc(-c2ccc(C)cc2)c1)C(N)=O`, the pIC50 with HeLa was 4.61; in experiment [1], below 4.30; in experiment [2], below 4.30; in experiment [3] it was 4.57; in the experiment on MCF7, 5.17; in the experiment with A549, 5.29. Also, in experiment [4], the pIC50 is 5.12.

On to `C/C(=C\c1cc(-c2cccnc2)co1)C(N)=O`, for which the pIC50 is below 4.30 in the experiment on HeLa; below 4.30 in experiment [1]; below 4.30 in experiment [2]; 5.06 in experiment [3]; 4.88 in the experiment on MCF7; 5.18 in the experiment with A549. For the same molecule, in experiment [4], the pIC50 is below 4.30.

Consider `COc1ccc(-c2csc(/C=C(\C)C(N)=O)c2)cc1`, for which the negative logarithm of the IC50 (pIC50) (with HeLa; in experiment [1]; in experiment [2]; in experiment [3]; in the experiment with MCF7; in the experiment on A549) was below 4.30 throughout. The pIC50 in experiment [4] is below 4.30.

For the molecule `C/C(=C\c1nc(-c2ccc(C)cc2)cs1)C(N)=O`, the pIC50 in the experiment on HeLa was 4.60; in experiment [1] it was below 4.30; in experiment [2], below 4.30; in experiment [3] it was below 4.30; in the experiment with MCF7 it was below 4.30; in the experiment with A549, below 4.30. The pIC50 in experiment [4] is below 4.30.

`C/C(=C\c1cc(-c2ccc(C)nc2)co1)C(N)=O`: the pIC50 is below 4.30 with HeLa; below 4.30 in experiment [1]; below 4.30 in experiment [2]; below 4.30 in experiment [3]; 4.99 with MCF7; below 4.30 in the experiment with A549. The pIC50 in experiment [4] was below 4.30.

On to `C/C(=C\c1cccc(-c2ccccc2)c1)C(N)=O`, for which the negative logarithm of the IC50 (pIC50) in the experiment on HeLa was 4.80; in experiment [1], below 4.30; in experiment [2], below 4.30; in experiment [3], 4.90; in the experiment with MCF7 it was 5.18; with A549, below 4.30. Also, in experiment [4], the pIC50 was below 4.30.

On to `C/C(=C\c1cc(-c2ccc(C(F)(F)F)cc2)cs1)C(N)=O`, for which the pIC50 is below 4.30 in the experiment with HeLa; below 4.30 in experiment [1]; below 4.30 in experiment [2]; below 4.30 in experiment [3]; 4.30 in the experiment with MCF7; below 4.30 in the experiment on A549. In addition, in experiment [4], the pIC50 is below 4.30.

As to `C/C(=C\c1cc(-c2ccc(F)cc2)cs1)C(N)=O`, the negative-log IC50 (pIC50) was 4.68 in the experiment on HeLa; below 4.30 in experiment [1]; below 4.30 in experiment [2]; below 4.30 in experiment [3]; 5.84 in the experiment with MCF7; below 4.30 with A549. For the same molecule, in experiment [4], the pIC50 was below 4.30.

For `C=Cc1ccc(-c2csc(/C=C(\C)C(N)=O)c2)cc1`, the negative-log IC50 (pIC50) (in the experiment on HeLa; in experiment [1]; in experiment [2]; in experiment [3]; with MCF7; with A549) was below 4.30 each time. In addition, in experiment [4], the pIC50 is below 4.30.

For the molecule `C/C(=C\c1cc(-c2ccc(C#N)cc2)cs1)C(N)=O`, the negative logarithm of the IC50 (pIC50) in the experiment with HeLa was 6.60; in experiment [1] it was below 4.30; in experiment [2], below 4.30; in experiment [3], 6.89; in the experiment with MCF7 it was 6.62; in the experiment with A549 it was below 4.30. The pIC50 in experiment [4] is below 4.30.
